The results in this text go back to article doi:10.1101/679118v2 (biorxiv, 2019).

The assay has as its system E. histolytica. The assay is described as follows: microbe, parasite or virus in culture. On the set-up: species or system Entamoeba histolytica HM-1:IMSS trophozoites. Conditions: Entamoeba histolytica, 24 h, read-out: EC50 E. histolytica.

Take `COc1cc(NS(C)(=O)=O)ccc1Nc1c2ccccc2nc2ccccc12` [Amsacrine]: the EC50 amounted to 80 µM. Take `NC1CCN(c2c(F)cc3c(=O)c(C(=O)O)cn(C4CC4)c3c2Cl)C1` (centres unmarked) [Clinafloxacin]: the concentration for a half-maximal effect (EC50) worked out at 270 µM. Regarding `C[C@H]([C@H](C)N1CC(=O)NC(=O)C1)N1CC(=O)NC(=O)C1` [ICRF 193], the EC50 is 15 µM.

As for `O=C(O)c1cn(C2CC2)c2cc(N3CCNCC3)c(F)cc2c1=O` [ciprofloxacin], the EC50 worked out at 250 µM. For `COc1cc([C@@H]2c3cc4c(cc3[C@@H](O[C@@H]3O[C@@H]5CO[C@@H](C)O[C@H]5[C@H](O)[C@H]3O)[C@H]3COC(=O)[C@H]23)OCO4)cc(OC)c1O` [etoposide], the EC50 came to 200 µM.

One may read the EC50 as the concentration that produces a half-maximal response.
